Results taken from patent US10167257B2, “Indole derivatives for use in medicine” (IOmet Pharma Ltd., priority 2014, dated 2019).

Assays:
IDO (SKOV-3 cells) = target: T1, IDO (SKOV-3 cells) (Homo sapiens, UniProt P14902); experiment: IDO cell-based assay (SKOV-3, IFNγ-induced), kynurenine production; settings: SKOV-3 ovary adenocarcinoma cells, IFNγ 500 ng/ml, 500 μM L-Trp, 48 h, kynurenine by absorbance at 490 nm
T1 construct: This assay utilised cancer cells which expressed either TDO or IDO; host or cells: SKOV-3 ovary adenocarcinoma cells, IFNγ-induced
Outline: (§1)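 SKOV-3 cells (IDO, induced with 500 ng/ml IFNγ) or A172 glioblastoma cells (TDO) were incubated with compound and 500 μM L-Trp for 48 h at 37 °C in phenol-red-free RPMI with dialysed serum. Supernatant kynurenine was measured with 1% Ehrlich's reagent as absorbance at 490 nm.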

TDO (A172 cells) = target: T2, TDO (A172 cells) (Homo sapiens, UniProt P48775); experiment: TDO cell-based assay (A172), kynurenine production; settings: A172 human glioblastoma cells, 500 μM L-Trp, 48 h, kynurenine by absorbance at 490 nm
T2 construct: This assay utilised cancer cells which expressed either TDO or IDO; host or cells: A172 human glioblastoma cells
Outline: as §1

T2 sequence (P48775 whole entry): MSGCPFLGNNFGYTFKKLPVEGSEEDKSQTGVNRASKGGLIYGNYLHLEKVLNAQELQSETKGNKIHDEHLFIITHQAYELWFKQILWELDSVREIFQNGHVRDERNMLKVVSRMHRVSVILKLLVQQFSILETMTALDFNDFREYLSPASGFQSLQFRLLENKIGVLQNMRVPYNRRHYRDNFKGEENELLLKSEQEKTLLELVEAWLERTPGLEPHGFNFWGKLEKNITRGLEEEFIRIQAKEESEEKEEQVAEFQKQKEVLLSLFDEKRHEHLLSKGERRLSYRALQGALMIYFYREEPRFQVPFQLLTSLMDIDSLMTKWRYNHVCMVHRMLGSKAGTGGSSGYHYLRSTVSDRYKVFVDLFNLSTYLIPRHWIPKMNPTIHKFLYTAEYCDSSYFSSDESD
T1 sequence (P14902 whole entry): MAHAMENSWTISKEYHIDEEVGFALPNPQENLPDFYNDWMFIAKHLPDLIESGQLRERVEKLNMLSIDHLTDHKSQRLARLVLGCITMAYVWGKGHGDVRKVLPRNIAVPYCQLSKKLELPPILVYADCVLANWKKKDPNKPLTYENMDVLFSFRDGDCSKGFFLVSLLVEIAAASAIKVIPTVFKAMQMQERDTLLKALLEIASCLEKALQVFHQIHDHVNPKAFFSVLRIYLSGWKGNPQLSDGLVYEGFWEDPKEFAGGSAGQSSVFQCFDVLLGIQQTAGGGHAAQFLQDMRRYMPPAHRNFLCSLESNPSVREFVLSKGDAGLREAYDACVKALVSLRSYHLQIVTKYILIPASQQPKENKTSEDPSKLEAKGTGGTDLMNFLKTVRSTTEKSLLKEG

| SMILES | IDO cellular assay (SKOV3) pIC50 (IDO (SKOV-3 cells)) | TDO cellular assay (A172) pIC50 (TDO (A172 cells)) |
| --- | --- | --- |
| O=C(NC1(c2ccccc2)CCCC1)c1cc2cc(Cl)ccc2[nH]1 [Compound 230] | +++ (+++ = pIC50 ≥5.50) | − (− = pIC50 <4.50) |
| N#Cc1ccc2[nH]c(C(=O)NC3(c4ccccc4)CCCC3)cc2c1 [Compound 231] | +++ (+++ = pIC50 ≥5.50) | − (− = pIC50 <4.50) |
| Cc1nnc(C2(NC(=O)c3cc4cc(Cl)ccc4[nH]3)CC2)[nH]1 [Compound 233] | + (+ = pIC50 4.50-<5.00) | − (− = pIC50 <4.50) |
| Cc1cc(C(C)NC(=O)c2cc3cc(Cl)ccc3[nH]2)no1 (centres unmarked) [Compound 234] | +++ (+++ = pIC50 ≥5.50) | ++ (++ = pIC50 5.00-<5.50) |
| Cc1cc(C(C)NC(=O)c2cc3cc(C#N)ccc3[nH]2)no1 (centres unmarked) [Compound 235] | +++ (+++ = pIC50 ≥5.50) | − (− = pIC50 <4.50) |
| Cn1cc(C2(NC(=O)c3cc4cc(C#N)ccc4[nH]3)COC2)cn1 [Compound 236] | +++ (+++ = pIC50 ≥5.50) | − (− = pIC50 <4.50) |
| O=C(NC(c1ccccc1)c1ccccc1)c1cc2cc(Cl)ccc2[nH]1 [Compound 237] | ++ (++ = pIC50 5.00-<5.50) | − (− = pIC50 <4.50) |
| Cn1cc(C2(NC(=O)c3cc4cc(Br)ccc4[nH]3)COC2)cn1 [Compound 238] | +++ (+++ = pIC50 ≥5.50) | − (− = pIC50 <4.50) |
| CC(NC(=O)c1cc2cc(OCc3ccccc3)ccc2[nH]1)c1cnn(C)c1 (centres unmarked) [Compound 239] | + (+ = pIC50 4.50-<5.00) | − (− = pIC50 <4.50) |
| O=C(NC1(c2ccccc2)CCCCC1)c1cc2cc(Cl)ccc2[nH]1 [Compound 240] | +++ (+++ = pIC50 ≥5.50) | − (− = pIC50 <4.50) |
| CCc1ccc2[nH]c(C(=O)N[C@H](C)c3ccccc3)cc2c1 [Compound 241] | +++ (+++ = pIC50 ≥5.50) | − (− = pIC50 <4.50) |
| CCc1ccc2[nH]c(C(=O)NC3(c4ccccc4)CC3)cc2c1 [Compound 242] | +++ (+++ = pIC50 ≥5.50) | − (− = pIC50 <4.50) |
| CCc1ccc2[nH]c(C(=O)NC(C)c3cnn(C)c3)cc2c1 (centres unmarked) [Compound 243] | +++ (+++ = pIC50 ≥5.50) | − (− = pIC50 <4.50) |
| O=C(NC1(c2ccc(F)cc2)COC1)c1cc2cc(Cl)ccc2[nH]1 [Compound 244] | +++ (+++ = pIC50 ≥5.50) | − (− = pIC50 <4.50) |
| N#Cc1ccc2[nH]c(C(=O)NC3(c4ccc(F)cc4)COC3)cc2c1 [Compound 245] | +++ (+++ = pIC50 ≥5.50) | − (− = pIC50 <4.50) |
| O=C(NC1(c2ccccc2)CC1)C1Cc2cc(Cl)ccc2N1 (centres unmarked) [Compound 246] | +++ (+++ = pIC50 ≥5.50) | + (+ = pIC50 4.50-<5.00) |
| C[C@@H](NC(=O)c1cc2cc(OC(F)(F)F)ccc2[nH]1)c1ccccc1 [Compound 247] | +++ (+++ = pIC50 ≥5.50) | − (− = pIC50 <4.50) |
| O=C(NC1(c2ccccc2)CC1)c1cc2cc(OC(F)(F)F)ccc2[nH]1 [Compound 248] | +++ (+++ = pIC50 ≥5.50) | − (− = pIC50 <4.50) |
| CC(NC(=O)c1cc2cc(OC(F)(F)F)ccc2[nH]1)c1cnn(C)c1 (centres unmarked) [Compound 249] | +++ (+++ = pIC50 ≥5.50) | + (+ = pIC50 4.50-<5.00) |

| SMILES | IDO cellular assay (SKOV3) pIC50 (IDO (SKOV-3 cells)) | TDO cellular assay (A172) pIC50 (TDO (A172 cells)) |
| --- | --- | --- |
| Cn1cc(C2(NC(=O)c3cc4cc(Cl)ccc4[nH]3)CCCC2)cn1 [Compound 250] | +++ (+++ = pIC50 ≥5.50) | − (− = pIC50 <4.50) |
| Cn1cc(C2(NC(=O)c3cc4cc(Cl)ccc4[nH]3)CCCCC2)cn1 [Compound 251] | +++ (+++ = pIC50 ≥5.50) | − (− = pIC50 <4.50) |
| C[C@@H](NC(=O)c1cc2cc(Br)ccc2[nH]1)c1ccccc1 [Compound 252] | +++ (+++ = pIC50 ≥5.50) | − (− = pIC50 <4.50) |
| O=C(NC1(c2ccccc2)CC1)c1cc2cc(Br)ccc2[nH]1 [Compound 253] | +++ (+++ = pIC50 ≥5.50) | − (− = pIC50 <4.50) |
| CC(NC(=O)c1cc2cc(Br)ccc2[nH]1)c1cnn(C)c1 (centres unmarked) [Compound 254] | +++ (+++ = pIC50 ≥5.50) | − (− = pIC50 <4.50) |
| CN1CCC(C(NC(=O)c2cc3cc(Cl)ccc3[nH]2)c2ccccc2)CC1 (centres unmarked) [Compound 256] | + (+ = pIC50 4.50-<5.00) | + (+ = pIC50 4.50-<5.00) |
| CCC(NC(=O)c1cc2cc(Cl)ccc2[nH]1)c1cnn(C)c1 (centres unmarked) [Compound 258] | +++ (+++ = pIC50 ≥5.50) | − (− = pIC50 <4.50) |
| CC(C)C(NC(=O)c1cc2cc(Cl)ccc2[nH]1)c1cnn(C)c1 (centres unmarked) [Compound 259] | +++ (+++ = pIC50 ≥5.50) | − (− = pIC50 <4.50) |
| CC(C)Oc1ccc2[nH]c(C(=O)N[C@H](C)c3ccccc3)cc2c1 [Compound 260] | +++ (+++ = pIC50 ≥5.50) | + (+ = pIC50 4.50-<5.00) |
| CC(C)Oc1ccc2[nH]c(C(=O)NC3(c4ccccc4)CC3)cc2c1 [Compound 261] | +++ (+++ = pIC50 ≥5.50) | − (− = pIC50 <4.50) |
| CC(C)Oc1ccc2[nH]c(C(=O)NC(C)c3cnn(C)c3)cc2c1 (centres unmarked) [Compound 262] | + (+ = pIC50 4.50-<5.00) | − (− = pIC50 <4.50) |
| Cn1cc(C2(NC(=O)c3cc4cc(Br)ccc4[nH]3)CC2)cn1 [Compound 263] | +++ (+++ = pIC50 ≥5.50) | − (− = pIC50 <4.50) |
| CCc1ccc2[nH]c(C(=O)NC3(c4cnn(C)c4)CC3)cc2c1 [Compound 264] | +++ (+++ = pIC50 ≥5.50) | − (− = pIC50 <4.50) |
| CC(C)Oc1ccc2[nH]c(C(=O)NC3(c4cnn(C)c4)CC3)cc2c1 [Compound 265] | +++ (+++ = pIC50 ≥5.50) | − (− = pIC50 <4.50) |
| Cn1cc(C2(NC(=O)c3cc4cc(Cl)ccc4[nH]3)CCOCC2)cn1 [Compound 266] | +++ (+++ = pIC50 ≥5.50) | − (− = pIC50 <4.50) |
| CC(Cc1cnn(C)c1)NC(=O)c1cc2cc(Cl)ccc2[nH]1 (centres unmarked) [Compound 267] | +++ (+++ = pIC50 ≥5.50) | ++ (++ = pIC50 5.00-<5.50) |
| Cn1cc(C2(NC(=O)c3cc4cc(Br)ccc4[nH]3)CCC2)cn1 [Compound 268] | +++ (+++ = pIC50 ≥5.50) | − (− = pIC50 <4.50) |
| Cn1cc(C2(NC(=O)c3cc4cc(OC(F)(F)F)ccc4[nH]3)CCC2)cn1 [Compound 269] | +++ (+++ = pIC50 ≥5.50) | − (− = pIC50 <4.50) |
